Laboratory results as given in US9499484B2, “Indole, indoline derivatives, compositions comprising them and uses thereof” (priority 2012, dated 2016).
Where a name gives a salt, the structure may show the parent alone. Read-outs that look alike come from different tables or passages of the source.

Key:
[1] = Radical scavenging, glucose oxidase/luminol luminescence; type: biochemical; conditions: concentration reducing luminescence/radical by 50%; mean ± SD, three independent experiments
Procedure: A. Measurement of Radical Scavenging
A mixture comprising glucose oxidase (GO), luminol, sodium selenite [IV] ([…]) and cobalt [II] (Co^+2) all in Hank's Balance Salt Solution (HBSS) was used (Ginsburg et al, 2004). The production of H2O2 produces a burst of luminescence within 30-60 sec, which lasts for 7-10 min. The luminescence involves oxidation of SEL+5 to it SEL+6 and also the generation of oxidants, which are catalyzed by Co^+2. This method mimics infection and inflammation conditions in which there is an accumulation of several oxidant species. This method provides a source of several radicals. Reduction in luminescence by the compounds is due to their ability to sequester radicals and was measured after addition of several concentrations of each compound. The concentration of each compound that reduced the luminescence by 50% was calculated.

BuChE = molecular target: T1, BuChE (UniProt P81908); type: biochemical, human or equine serum
T1 construct: 120 min incubation; BuChE IC50
Procedure: B. Measurement of Acetylcholinesterase (AChE) and Butylcholinesterase (BuChE) Inhibition In Vitro
The enzyme was incubated at 37° C. with 6-10 concentrations of the compounds tested and samples were collected at 15, 30, 60 and 120 min Aliquots were transferred to an Elisa multiscan microplate reader (Labsystems) at 15-60 sec time intervals for the determination of residual AChE activity, with Ascent PC software. […] The % inhibition of AChE by each concentration was calculated by comparison with the activity of the enzyme in the absence of drug. […] BuChE-inhibitory activity was determined as described above using BuChE (Sigma Israel) with butylthiocholine iodide (BuTh) 0.075M as a substrate.

[2] = tested on: TNF-α, BV2 mouse microglial cells; assay: TNF-α reduction in LPS-stimulated BV2 microglia; type: cell-based
Procedure: The BV2 mouse microglial cells were created by infecting primary mouse microglia with v-raf/v-myc oncogen-carrying retrovirus and donated by Dr. Sigal Fleisher—Berkovich (Ben-Gurion University of the Negev). The cells were cultured in RPMI 1640 containing 0.4 mM L-Glutamine, 10% FCS, 100 units/ml penicillin, 100 μg/ml streptomycin and maintained in a humidified incubator at 37° C. with 5% CO2. For measurement of the effect of compounds on the release of NO the cells were seeded in a density of 80,000 cells/ml and confluence of about 60%, and incubated with test compounds (in the absence of FCS) for […] All the medium was removed and fresh medium containing FCS and LPS (10 μg/ml) added and the cells maintained at 37° C. for 24 h. The release of NO into the medium was determined by measurement of nitrite levels using Griess reagent reaction. For measurement of protein levels of cytokines cells were seeded in a density of 80,000 and incubated with test compounds (in the absence of FCS) and then with LPS as described above. The medium was centrifuged and supernatants collected after 6 h for TNF-α (Biolegend) and after 20 h for IL-6 (Biolegend).

[3] = read-out: IC50 BuChE 120 min, Table 3, 120 min incubation

SMILES	melting point [°C]	also measured
CCCCN(C)C(=O)Oc1ccc2cc[nH]c2c1	84 to 87	–
COC(=O)/C=C/c1c[nH]c2cc(OCc3ccccc3)ccc12	174 to 178	–
CCN(C)C(=O)Oc1ccc2cc[nH]c2c1	105 to 108	–
CCN(C)C(=O)Oc1ccc2c(C=O)c[nH]c2c1	170 to 175	–
COC(=O)/C=C/c1c[nH]c2cc(O)ccc12	195 to 200	–
COc1ccc(N(C)C(=O)Oc2ccc3cc[nH]c3c2)cc1	168 to 173	–
COc1ccc(N(C)C(=O)Oc2ccc3c(C=O)c[nH]c3c2)cc1	218 to 220	–
COc1ccc(N(C)C(=O)Oc2ccc3c(C=O)cn(C)c3c2)cc1	110 to 115	–
COC(=O)/C=C/c1cn(C)c2cc(OC(=O)N(C)c3ccc(OC)cc3)ccc12	120 to 125	–
CCN(C)C(=O)Oc1ccc2c(C=O)cn(C)c2c1	124 to 128	–
CCN(C)C(=O)Oc1ccc2c(/C=C/C(=O)OC)cn(C)c2c1	105 to 110	–
CCCCN(C)C(=O)Oc1ccc2c(C=O)cn(C)c2c1	90 to 95	–
CCCCN(C)C(=O)Oc1ccc2c(/C=C/C(=O)OC)cn(C)c2c1	65 to 70	–
COC(=O)/C=C/c1cn(C)c2cc(OCc3ccccc3)ccc12	150 to 155	–
CCN(C)C(=O)Oc1ccc2c(CCC(=O)O)c[nH]c2c1	132 to 136	–
O=C(O)CCc1c[nH]c2cc(O)ccc12	197 to 200	–
Cn1cc(CCC(=O)O)c2ccc(O)cc21	157 to 161	–
CCN(C)C(=O)Oc1cccc2[nH]cc(CCC(N)=O)c12	64 to 66	–
COC(=O)/C=C/c1c[nH]c2c(OCc3ccccc3)cccc12	134 to 137	–
COC(=O)CCc1c[nH]c2c(O)cccc12	89 to 94	–

SMILES	melting point [°C]	also measured
CCN(C)C(=O)Oc1cccc2c(CCC(=O)O)c[nH]c12	98 to 101	–
CCOC(=O)CCc1c[nH]c2cccc(OC(=O)N(C)CC)c12	85 to 87	–
CCN(C)C(=O)Oc1cccc2[nH]cc(/C=C/[N+](=O)[O-])c12	171 to 174	–
O=C(O)CCc1c[nH]c2cccc(O)c12	118 to 120	–
O=C(O)/C=C/c1c[nH]c2cccc(OCc3ccccc3)c12	163 to 164	–
CCN(C)C(=O)Oc1ccc2ccn(CCC(=O)OC)c2c1	94 to 96	–
CCN(C)C(=O)Oc1cccc2[nH]ccc12	113 to 115	–
CCN(C)C(=O)Oc1cccc2c1ccn2C	42 to 45	–
CCN(C)C(=O)Oc1cccc2c1c(C=O)cn2C	85 to 88	–
CCCCN(C)C(=O)Oc1cccc2[nH]ccc12	86 to 89	–
COC(=O)CCc1c[nH]c2cc(O)ccc12	93 to 96	–
CCN(C)C(=O)Oc1ccc2c(CCC(=O)OC)cn(C)c2c1	49 to 52	–
COC(=O)CCc1cn(C)c2cc(O)ccc12	35 to 40	–
CCN(C)C(=O)Oc1cccc2[nH]cc(/C=C/C(=O)OC)c12	128 to 131	–
CCN(C)C(=O)Oc1cccc2c1c(/C=C/C(=O)OC)cn2C	97 to 100	–
COc1ccc(N(C)C(=O)Oc2cccc3[nH]ccc23)cc1	113 to 115	–
COc1ccc(N(C)C(=O)Oc2cccc3[nH]cc(C=O)c23)cc1	173 to 175	–
COC(=O)/C=C/c1c[nH]c2cccc(OC(=O)N(C)c3ccc(OC)cc3)c12	155 to 157	–
COC(=O)CCc1cn(C)c2cccc(OC(=O)N(C)c3ccc(OC)cc3)c12	110 to 112	–
COc1ccc(N(C)C(=O)Oc2cccc3[nH]cc(CCC(=O)O)c23)cc1	194 to 196	–

SMILES	melting point [°C]	also measured
COc1ccc(N(C)C(=O)Oc2cccc3c2c(CCC(=O)O)cn3C)cc1	161 to 163	–
COC(=O)/C=C/c1c[nH]c2cccc(OCc3ccccc3)c12	153 to 156	–
COC(=O)/C=C/c1cn(C)c2cccc(OCc3ccccc3)c12	122 to 125	–
COC(=O)CCc1c[nH]c2cccc(O)c12	93 to 95	–
COC(=O)CCc1cn(C)c2cccc(O)c12	123 to 124	–
CCN(C)C(=O)Oc1ccc2c(/C=C/C(=O)OC)c[nH]c2c1	142 to 145	–
CCN(C)C(=O)Oc1cccc2[nH]cc(/C=C/C(=O)O)c12	164 to 166	–
COC(=O)CCC1CN(C)c2cc(O)ccc21 (stereo not drawn) (as salt: hydrochloride)	104 to 108	–
CCCCN(C)C(=O)Oc1cccc2c1C(CCC(=O)OC)CN2C (stereo not drawn) [AN-667, 3-(2-(Methoxycarbonyl)ethyl)-1-methylindolin-4-yl butylmethylcarbamate hydrochloride]	–	IC50 [1]: 6.84 ± 0.05 µM; IC50 (BuChE; [3]): 197 µM
CCN(C)C(=O)Oc1cccc2c1C(CCC(=O)OC)CN2C (stereo not drawn) [AN-698, 3-(2-(Methoxycarbonyl)ethyl)-1-methylindolin-4-yl ethylmethylcarbamate hydrochloride]	–	IC50 [1]: 3.13 ± 0.36 µM; IC50 (BuChE; [3]): 6.8 µM
CCN(C)C(=O)Oc1cccc2c1C(CCC(=O)O)CN2C (stereo not drawn) [AN-699, 3-(4-((Ethyl(methyl)carbamoyl)oxy)-1-methylindolin-3-yl)propanoic acid hydrochloride]	–	IC50 [1]: 1.64 ± 0.06 µM; IC50 (BuChE; [3]): 9.7 µM
COc1ccc(N(C)C(=O)Oc2cccc3c2C(CCC(=O)O)CN3)cc1 (stereo not drawn) [AN-821, hydrochloride]	–	IC50 [1]: 4.33 ± 0.06 µM; IC50 (BuChE; [3]): 417 µM
COc1ccc(N(C)C(=O)Oc2cccc3c2C(CCC(=O)O)CN3C)cc1 (stereo not drawn) [AN-822, hydrochloride]	–	IC50 [1]: 10.2 ± 4.1 µM; IC50 (BuChE; [3]): > 600 µM
[2H]c1cc2c(cc1O)N(C)CC2CCC(=O)O (stereo not drawn) [AN-849, Methyl 3-(5-deuteriu-6-hydroxy-1-methylindolin-3-yl) propanoic acid hydrochloride]	–	IC50 [1]: 0.84 ± 0.05 µM
CCN(C)C(=O)Oc1cccc2c1C(CCC(N)=O)CN2 (stereo not drawn) [AN-851, 3-(3-Amino-3-oxopropyl)indolin-4-yl ethyl(methyl)carbamate hydrochloride]	–	IC50 [1]: 2.39 ± 0.4 µM; IC50 (BuChE; [3]): 8.5 µM
CCN(C)C(=O)Oc1cccc2c1NCC2CCC(=O)OC (stereo not drawn) [AN-852, Methyl 3-(7-(ethyl(methyl)carbamoyloxy)indolin-3-yl)propanoate hydrochloride]	–	IC50 (BuChE; read-out: BuChE IC50, most potent BuChE inhibitors): 0.08 µM
Oc1cccc2c1CCN2 [AN-855, Indolin-4-ol hydrochloride]	–	Reduction in TNF-α levels, BV2 Microglia % peak reduction [2]: 38.2 ± 3.2%; Reduction in TNF-α levels, BV2 Microglia range ([2]; concentration range, None = no reduction up till 100 nM): 10^−1-100 nM
CN(C)C(=O)Oc1cccc2c1CCN2 [AN-856, Indolin-4-yl dimethylcarbamate hydrochloride]	–	IC50 [1]: 0.77 ± 0.03 µM; IC50 (BuChE; [3]): 1.3 µM
COc1ccc(N(C)C(=O)Oc2cccc3c2CCN3)cc1 [AN-857, Indolin-4-yl 4-methoxyphenyl(methyl)carbamate hydrochloride]	–	IC50 (BuChE; [3]): 3.6 µM
CCN(C)C(=O)Oc1ccc2c(c1)NCC2 [AN-885, Indolin-6-yl ethyl(methyl)carbamate hydrochloride]	–	IC50 [1]: 1.15 ± 0.01 µM; IC50 (BuChE; [3]): 58.7 µM
